Our source for the IC50 values is ChEMBL document CHEMBL1150970, “Starfish saponins. 55. Isolation, structure elucidation, and biological activity of the steroid oligoglycosides from an Antarctic starfish of the family Asteriidae” (J Nat Prod, 1998).

The test can be described thus: Cytotoxicity against human NSCLC-L16 cells. The test is classed as functional, cell-based.
The compound `CC(C)[C@@H](/C=C/[C@@H](C)[C@H]1C[C@H](O)[C@@H]2[C@]1(C)CC[C@@H]1[C@@]3(C)CC[C@H](O[C@@H]4OC[C@@H](O)[C@H](O)[C@H]4O)C[C@@H]3[C@H](O)C[C@]12O)COS(=O)(=O)[O-].[Na+]` [ASTERIIDOSIDE L] had an IC50 of more than 30 µg/mL.
Under `C[C@@H](C/C=C/[C@@H](C)[C@H]1[C@@H](O)[C@@H](O)[C@@H]2[C@]1(C)CC[C@@H]1[C@@]3(C)CC[C@H](O[C@@H]4OC[C@@H](O)[C@H](O)[C@H]4O)C[C@@H]3[C@@H](O)C[C@]12O)CO[C@@H]1OC[C@@H](O)[C@H](O)[C@H]1O` [ASTERIIDOSIDE F] stands more than 30 µg/mL.
For the compound `C=C(CC[C@](C)(O)[C@H]1CC[C@H]2[C@@H]3C[C@H](O[C@@H]4O[C@H](C)[C@@H](O)[C@H](O[C@@H]5OC[C@@H](O[C@@H]6O[C@H](C)[C@H](O)[C@H](O)[C@H]6O[C@@H]6OC[C@H](O)[C@H](O[C@@H]7O[C@H](CO)[C@H](O)[C@H](O)[C@H]7O)[C@H]6O)[C@H](O)[C@H]5O[C@@H]5O[C@H](C)[C@@H](O)[C@H](O)[C@H]5O)[C@H]4C)[C@H]4C[C@@H](OS(=O)(=O)[O-])CC[C@]4(C)C3=CC[C@@]21C)C(C)C.[Na+]` [ASTERIIDOSIDE D], half-maximal inhibition (IC50) was put at 11.4 µg/mL.
`CC(C)CC(=O)C[C@](C)(O)[C@H]1CC[C@H]2[C@@H]3C[C@H](O[C@@H]4O[C@H](C)[C@@H](O)[C@H](O[C@@H]5O[C@H](C)[C@@H](O[C@@H]6O[C@H](CO)[C@H](O)[C@H](O)[C@H]6O[C@@H]6O[C@H](C)[C@H](O)[C@H](O[C@@H]7O[C@H](CO)[C@H](O)[C@H](O)[C@H]7O)[C@H]6O)[C@H](O)[C@H]5O[C@@H]5O[C@H](C)[C@@H](O)[C@H](O)[C@H]5O)[C@H]4C)[C@H]4C[C@@H](OS(=O)(=O)[O-])CC[C@]4(C)C3=CC[C@@]21C.[Na+]` [ASTERIIDOSIDE A] displayed a concentration for half-maximal inhibition (IC50) of more than 30 µg/mL.
For the compound `CC(C)[C@H](/C=C/[C@@H](C)[C@H]1C[C@@H](O)[C@@H]2[C@]1(C)CC[C@@H]1[C@@]3(C)CC[C@H](O[C@@H]4OC[C@@H](O)[C@H](O)[C@H]4O)C[C@@H]3[C@@H](O)[C@@H](O)[C@]12O)O[C@@H]1OC[C@@H](O)[C@H](OS(=O)(=O)[O-])[C@H]1O.[Na+]` [ASTERIIDOSIDE I], the 50% inhibitory concentration (IC50) is more than 30 µg/mL.
Under `CC(C)=CCC[C@](C)(O)[C@H]1CC[C@H]2[C@@H]3C[C@H](O[C@@H]4O[C@H](C)[C@@H](O)[C@H](O[C@@H]5OC[C@@H](O[C@@H]6O[C@H](C)[C@H](O)[C@H](O)[C@H]6O[C@@H]6OC[C@H](O)[C@H](O[C@@H]7O[C@H](CO)[C@H](O)[C@H](O)[C@H]7O)[C@H]6O)[C@H](O)[C@H]5O[C@@H]5O[C@H](C)[C@@H](O)[C@H](O)[C@H]5O)[C@H]4C)[C@H]4C[C@@H](OS(=O)(=O)[O-])CC[C@]4(C)C3=CC[C@@]21C.[Na+]` [ASTERIIDOSIDE E] stands 18.1 µg/mL.

One may read the IC50 as the point on the concentration scale where inhibition reaches its midpoint.
